The text below walks through data of patent US10945938B2, “Lactone-containing compositions for malodor elimination” (Takasago International Corporation, priority 2014, dated 2021).

Where “and” joins values, the source holds several entries; their conditions need not be identical. Equal values may be shown once.

The nature of experiment [1]: Methyl mercaptan suppression analysis by GC-PFPD, non-aqueous (ethanol) conditions (Examples 5-9). The conditions noted are these: for Methyl Mercaptan Suppression (%): 200 proof ethanol, 10 ppm methyl mercaptan sodium salt, room temperature 2 hours. The text has this: (§1) Methyl mercaptan suppression analysis was used to evaluate malodor elimination effects of the compounds. Methyl mercaptan is known to be a major oral malodor material. For example, methyl mercaptan is found in the oral cavity of halitosis patients and also found in malodor producing food products (e.g., garlic). A multipurpose sampler (MPS 2, Gerstel Inc, Baltimore Md.)—Gas Chromatography (6890N, Agilent Technologies Inc, Wilmington Del.) with the Pulsed Flame Photometric Detector (PFPD, model 5380, OI Analytical, College Station, Tx) was used for the methyl mercaptan analysis. 0.5% (w/v) sodium thiomethoxide, which is a sodium salt of methyl mercaptan (purchased from Aldrich chemical company, Inc. Allentown, Pa.) in deionized water was used as the methyl mercaptan stock solution, which was freshly prepared for every test day.
For the screening test, 100 ppm lactone (20 μl of 0.5% of lactone in 200 proof ethanol (w/v)), 300 ppm lactone (30 μl of 1% of lactone in 200 proof ethanol (w/v)), 200 ppm phenolic compound (20 μl of 1% of phenolic compound in 200 proof ethanol (w/v)) and 300 ppm phenolic compound (30 μl of 1% of phenolic compound in 200 proof ethanol (w/v)) were tested. In addition, various combinations of a lactone and a phenolic compound were tested. The lactones and phenolic compounds were pipetted into 2 ml GC vials, and 200 proof ethanol was added up to 1000 μl. The prepared vial was placed on a sample tray of the multipurpose sampler-GC-PFPD. 2 μl methyl mercaptan stock solution was added in the GC vial utilizing the multipurpose sampler, and the vial was left to sit at room temperature for 2 hours. 0.4 μl of the test solution was injected into the GC inlet (an Agilent tapered focus liner with glass wool was installed, split mode, 10:1 split ratio) using the multipurpose sampler. The carrier gas flow rate was 1.5 ml/min (in constant flow mode) and the Agilent DB-1 MS UI column (L60 m×ID 0.250 mm×thickness 0.25 μm) was used for the analysis. The temperature of the GC oven started at 40° C. and after 5 minutes, the temperature was increased to 180° C. at a speed of 20° C./min, and subsequently to 280° C. at a speed of 40° C./min, which was held for 5 minutes.
200 proof ethanol alone was used as a blank control. The final concentration of the methyl mercaptan sodium salt was 10 ppm.
Malodor (methyl mercaptan) suppression was calculated as follows: Malodor (methyl mercaptan) Suppression (%)=(GC area of blank control sample−GC area of test sample)/GC area of blank control sample×100.

Experiment [2] in a line: Methyl mercaptan suppression analysis by GC-PFPD, aqueous conditions (Examples 1-4). As to conditions: for Methyl Mercaptan Suppression (%): ethanol/deionized water, about 10 ppm methyl mercaptan sodium salt, room temperature 2 hours, replicate values; for suppression of the amount of methyl mercaptan (in words): lactone alone, 100 or 200 ppm, aqueous conditions, Tables 1-4.
Excerpt: as §1
200 ppm or 100 ppm lactone (36 μl of 1% (200 ppm) or 0.5% (100 ppm) (w/v) of the test malodor eliminating compounds in 200 proof ethanol), 144 μl of 200 proof ethanol, and 1620 μl of deionized water were added into a 2 ml GC vial. The prepared vial was placed on a sample tray of the multipurpose sampler-GC-PFPD. 3.6 μl of methyl mercaptan stock solution was added in the GC vial using the multipurpose sampler, and the GC vial was left to sit at room temperature for 2 hours. 0.4 μl of the test solution was injected into the GC inlet (an Agilent tapered focus liner with glass wool was installed, split mode, 10:1 split ratio) using the multipurpose sampler. The carrier gas flow rate was 1.5 ml/min (in constant flow mode) and the Agilent DB-1MS UI column (L60 m×ID 0.250 mm×thickness 0.25 μm) was used for the analysis. […] The GC oven was held at 280° C. for 5 minutes. Ethanol alone was used as a blank control. The final concentration of test malodor eliminating compounds were 200 ppm or 100 ppm, and final methyl mercaptan sodium salt concentration was about 10 ppm.
Malodor (methyl mercaptan) suppression was calculated as follows: Malodor (methyl mercaptan) Suppression (%)=(GC area of blank control sample−GC area of test sample)/GC area of blank control sample×100.

Setting [3] is: 200 ppm test compound alone, values of several testing sets.
Where [4] appears, read: 300 ppm test compound alone, replicate values.

Take `CCCCOCc1ccc(O)c(OC)c1` [Hotact ®VBE, vanillyl butyl ether]: the “Methyl Mercaptan Suppression (%)” value is 13% and 7% and 8% and 10% and 12% and 17% in experiment [1] (setting [3]); 13% (2×) and 10% in experiment [1] (setting [4]).
Turning to `CC1=CCC(=O)O1` [angelica lactone alpha], the “Methyl Mercaptan Suppression (%)” value in experiment [2] (100 ppm test compound alone) was 47% and 31% and 69%; in experiment [2] (200 ppm test compound alone) it was 94% and 93% and 86%; in experiment [1] (setting [4]), 32% and 22% and 30%. Besides, in experiment [2], the “suppression of the amount of methyl mercaptan (in words)” value (from here on “suppression of the amount … (in words)”) is on record as “suppressed the amount of methyl mercaptan”.
Take `COC(=O)c1ccccc1O` [methyl salicylate]: the “Methyl Mercaptan Suppression (%)” value in experiment [1] (setting [4]) is 9% and 10% and 8%.
`O=C1O[C@H]([C@@H](O)CO)C(O)=C1O` [ascorbic acid, reference compound]: in experiment [1] (setting [3]), the “Methyl Mercaptan Suppression (%)” value was 11%. In experiment [1] (ethanol conditions, combination compared with additive effect of single components), the “synergistic malodor suppression or elimination effect of the combination with a phenolic compound (in words)” value is recorded as “do not exhibit a synergistic malodor elimination effect when combined with phenolic compounds”.
On to `C=CCc1ccc(O)c(OC)c1` [eugenol], for which, in experiment [1] (setting [4]), the “Methyl Mercaptan Suppression (%)” value is 8% and 14% and 11%.
Regarding `CC1=C2CCC(C)CC2OC1=O` (stereo not shown) [mint lactone], the “Methyl Mercaptan Suppression (%)” value in experiment [2] (200 ppm test compound alone) was 87% and 100% (2×). Besides, the “suppression of the amount … (in words)” value in experiment [2] is reported as “suppressed the amount of methyl mercaptan”.
Turning to `O=C1C=CCO1` [2(5H) furanone], in experiment [2] (100 ppm test compound alone), the “Methyl Mercaptan Suppression (%)” value is 97% and 95% and 100%. Also, in experiment [2], the “suppression of the amount … (in words)” value was “suppressed the amount of methyl mercaptan”.
With `CC1C=CC(=O)O1` (stereo not drawn) [angelica lactone beta], the “Methyl Mercaptan Suppression (%)” value in experiment [2] (100 ppm test compound alone) was 10% and 26% and 41%. Moreover, the “suppression of the amount … (in words)” value in experiment [2] is on record as “suppressed the amount of methyl mercaptan”.
